# Reference: US9365576B2, “Pyrrolopyrrolidinone compounds” (Novartis AG, priority 2012, dated 2016)
# pIC50: −log10 of the molar value.
# Molecular target: human MDM2 protein (amino acids 2-188) (Homo sapiens (Human), UniProt Q00987)
# Assay: TR-FRET assay, p53-MDM2 Assay 2 (modified)
# Format: binding
# Conditions: TR-FRET; 0.1 nM MDM2, 0.1 nM Europium labeled streptavidin, Tecan genios Pro reader; read-out: IC50 p53-MDM2 Assay 2
# How it was run: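 IC50 values were curve-fitted from the time-resolved 665/620 nm emission ratio after 340 nm excitation. The assay combined 0.625 nM europium-streptavidin donor with 1.25 nM C-terminally biotinylated MDM2 2–188 (15 min, RT), followed by 15 min with 10 nM Cy5-labeled p53 18–26 acceptor peptide.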
# Chain of human MDM2 protein (amino acids 2-188) (Q00987 2-188): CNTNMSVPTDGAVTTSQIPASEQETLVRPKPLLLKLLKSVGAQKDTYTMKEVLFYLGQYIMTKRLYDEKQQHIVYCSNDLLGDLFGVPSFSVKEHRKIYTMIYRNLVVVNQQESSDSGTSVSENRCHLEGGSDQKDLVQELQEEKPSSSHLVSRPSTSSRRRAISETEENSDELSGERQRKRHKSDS
row,SMILES,pIC50
1,"COc1nc(N(C)C)ncc1-c1cc2c(n1C(C)C)C(c1ccc(C#N)cc1)N(c1ccc(F)c(Cl)c1)C2=O (centres unmarked) [Example 93, 4-[5-(3-Chloro-4-fluoro-phenyl)-2-(2-dimethylamino-4-methoxy-pyrimidin-5-yl)-1-isopropyl-4-oxo-1,4,5,6-tetrahydro-pyrrolo[3,4-b]pyrrol-6-yl]-benzonitrile]",9.44
2,"COc1nc(N(C)C)ncc1-c1cc2c(n1C(C)C)C(c1ccc(C#N)cc1)N(c1cccc(Cl)c1F)C2=O (centres unmarked) [Example 94, 4-[5-(3-Chloro-2-fluoro-phenyl)-2-(2-dimethylamino-4-methoxy-pyrimidin-5-yl)-1-isopropyl-4-oxo-1,4,5,6-tetrahydro-pyrrolo[3,4-b]pyrrol-6-yl]-benzonitrile]",9.73
3,"COc1nc(N(C)C)ncc1-c1cc2c(n1C(C)C)C(c1ccc(C#N)cc1)N(c1cc(Cl)ccc1C)C2=O (centres unmarked) [Example 95, 4-[5-(5-Chloro-2-methyl-phenyl)-2-(2-dimethylamino-4-methoxy-pyrimidin-5-yl)-1-isopropyl-4-oxo-1,4,5,6-tetrahydro-pyrrolo[3,4-b]pyrrol-6-yl]-benzonitrile]",9.71
4,"COc1ncc(-c2cc3c(n2C(C)C)C(c2ccc(Cl)cc2)N(C2CCNCC2)C3=O)c(OC)n1 (centres unmarked) [Example 106, 6-(4-Chloro-phenyl)-2-(2,4-dimethoxy-pyrimidin-5-yl)-1-isopropyl-5-piperidin-4-yl-5,6-dihydro-1H-pyrrolo[3,4-b]pyrrol-4-one]",6.04
5,"COc1ncc(-c2cc3c(n2C(C)C)C(c2ccc(Cl)cc2)N(C2CCC(=O)N(C)C2)C3=O)c(OC)n1 (centres unmarked) [Example 109, 6-(4-Chloro-phenyl)-2-(2,4-dimethoxy-pyrimidin-5-yl)-1-isopropyl-5-(1-methyl-6-oxo-piperidin-3-yl)-5,6-dihydro-1H-pyrrolo[3,4-b]pyrrol-4-one]",8.80
6,"COc1ncc(-c2cc3c(n2C(C)C)C(c2ccc(Cl)cc2)N(C2CN(C)C(=O)N(C)C2)C3=O)c(OC)n1 (centres unmarked) [Example 110, 6-(4-Chloro-phenyl)-2-(2,4-dimethoxy-pyrimidin-5-yl)-5-(1,3-dimethyl-2-oxo-hexahydro-pyrimidin-5-yl)-1-isopropyl-5,6-dihydro-1H-pyrrolo[3,4-b]pyrrol-4-one]",9.13
7,"COc1ncc(-c2cc3c(n2C(C)C)C(c2ccc(Cl)cc2)N(c2cn(C)c(=O)cc2C)C3=O)c(OC)n1 (centres unmarked) [Example 111, 6-(4-Chloro-phenyl)-2-(2,4-dimethoxy-pyrimidin-5-yl)-5-(1,4-dimethyl-6-oxo-1,6-dihydro-pyridin-3-yl)-1-isopropyl-5,6-dihydro-1H-pyrrolo[3,4-b]pyrrol-4-one]",8.73
8,"COc1nc(N(C)C)ncc1-c1cc2c(n1C(C)C)C(c1ccc(Cl)cc1)N(c1cn(C)c(=O)cc1C)C2=O (centres unmarked) [Example 112, 6-(4-Chloro-phenyl)-2-(2-dimethylamino-4-methoxy-pyrimidin-5-yl)-5-(1,4-dimethyl-6-oxo-1,6-dihydro-pyridin-3-yl)-1-isopropyl-5,6-dihydro-1H-pyrrolo[3,4-b]pyrrol-4-one]",9.41
9,"COc1ccc(CC(=O)O)cc1-c1cc2c(n1C(C)C)C(c1ccc(Cl)cc1)N(c1cc(Cl)c(=O)n(C)c1)C2=O (centres unmarked) [Example 118, {3-[5-(5-Chloro-1-methyl-6-oxo-1,6-dihydro-pyridin-3-yl)-6-(4-chloro-phenyl)-1-isopropyl-4-oxo-1,4,5,6-tetrahydro-pyrrolo[3,4-b]pyrrol-2-yl]-4-methoxy-phenyl}-acetic acid]",9.51
10,"COc1ccc(S(C)(=O)=O)cc1-c1cc2c(n1C(C)C)C(c1ccc(Cl)cc1)N(c1cc(Cl)c(=O)n(C)c1)C2=O (centres unmarked) [Example 119, 5-(5-Chloro-1-methyl-6-oxo-1,6-dihydro-pyridin-3-yl)-6-(4-chloro-phenyl)-1-isopropyl-2-(5-methanesulfonyl-2-methoxy-phenyl)-5,6-dihydro-1H-pyrrolo[3,4-b]pyrrol-4-one]",9.77
11,"COc1ncc(-c2c(C#N)c3c(n2C(C)C)C(c2ccc(Cl)cc2)N(c2cc(Cl)c(=O)n(C)c2)C3=O)c(OC)n1 (centres unmarked) [Example 120, 5-(5-Chloro-1-methyl-6-oxo-1,6-dihydro-pyridin-3-yl)-6-(4-chloro-phenyl)-2-(2,4-dimethoxy-pyrimidin-5-yl)-1-isopropyl-4-oxo-1,4,5,6-tetrahydro-pyrrolo[3,4-b]pyrrole-3-carbonitrile]",9.78
12,"COc1ncc(-c2cc3c(n2C(C)C)[C@@H](c2ccc(Cl)cc2)N(c2cc(Cl)c(=O)n(C)c2)C3=O)c(OC)n1 [Example 122, (R)-5-(5-Chloro-1-methyl-6-oxo-1,6-dihydro-pyridin-3-yl)-6-(4-chloro-phenyl)-2-(2,4-dimethoxy-pyrimidin-5-yl)-1-isopropyl-5,6-dihydro-1H-pyrrolo[3,4-b]pyrrol-4-one]",7.11
13,"COc1nc(N(C)C)ncc1-c1cc2c(n1C(C)C)C(c1ccc(Cl)cc1)N(c1cc(Cl)c[nH]c1=O)C2=O (centres unmarked) [Example 123, 5-(5-Chloro-2-oxo-1,2-dihydro-pyridin-3-yl)-6-(4-chloro-phenyl)-2-(2-dimethylamino-4-methoxy-pyrimidin-5-yl)-1-isopropyl-5,6-dihydro-1H-pyrrolo[3,4-b]pyrrol-4-one]",9.97
14,"CNc1ncc(-c2cc3c(n2C(C)C)C(c2ccc(Cl)cc2)N(c2cc(Cl)c[nH]c2=O)C3=O)c(OC)n1 (centres unmarked) [Example 124, 5-(5-Chloro-2-oxo-1,2-dihydro-pyridin-3-yl)-6-(4-chloro-phenyl)-1-isopropyl-2-(4-methoxy-2-methylamino-pyrimidin-5-yl)-5,6-dihydro-1H-pyrrolo[3,4-b]pyrrol-4-one]",9.73

# The next lines start with the values.
row,pIC50,SMILES
1,7.38,"COc1ccc(CC(=O)O)cc1-c1cc2c(n1C(C)C)[C@@H](c1ccc(Cl)cc1)N(c1cc(Cl)ccc1C)C2=O [Example 92, {3-[(R)-5-(5-Chloro-2-methyl-phenyl)-6-(4-chloro-phenyl)-1-isopropyl-4-oxo-1,4,5,6-tetrahydro-pyrrolo[3,4-b]pyrrol-2-yl]-4-methoxy-phenyl}-acetic acid]"
2,8.71,"COc1ccccc1-c1cc2c(n1C(C)C)C(c1ccc(Cl)cc1)N(c1cc(Cl)ccc1C#N)C2=O (centres unmarked) [Example 96, 4-Chloro-2-[6-(4-chloro-phenyl)-1-isopropyl-2-(2-methoxy-phenyl)-4-oxo-4,6-dihydro-1H-pyrrolo[3,4-b]pyrrol-5-yl]-benzonitrile]"
3,9.42,"CNC(=O)c1ccc(OC)c(-c2cc3c(n2C(C)C)C(c2ccc(Cl)cc2)N(c2cc(Cl)ccc2C#N)C3=O)c1 (centres unmarked) [Example 97, 3-[5-(5-Chloro-2-cyano-phenyl)-6-(4-chloro-phenyl)-1-isopropyl-4-oxo-1,4,5,6-tetrahydro-pyrrolo[3,4-b]pyrrol-2-yl]-4-methoxy-N-methyl-benzamide]"
4,9.50,"COc1ncc(-c2cc3c(n2C(C)C)C(c2ccc(Cl)cc2)N(c2cc(Cl)ccc2C#N)C3=O)c(OC)n1 (centres unmarked) [Example 98, 4-Chloro-2-[6-(4-chloro-phenyl)-2-(2,4-dimethoxy-pyrimidin-5-yl)-1-isopropyl-4-oxo-4,6-dihydro-1H-pyrrolo[3,4-b]pyrrol-5-yl]-benzonitrile]"
5,8.84,"COc1nc(N)ncc1-c1cc2c(n1C(C)C)C(c1ccc(Cl)cc1)N(c1cc(Cl)ccc1C#N)C2=O (centres unmarked) [Example 99, 2-[2-(2-Amino-4-methoxy-pyrimidin-5-yl)-6-(4-chloro-phenyl)-1-isopropyl-4-oxo-4,6-dihydro-1H-pyrrolo[3,4-b]pyrrol-5-yl]-4-chloro-benzonitrile]"
6,9.50,"COc1nc(N(C)C)ncc1-c1cc2c(n1C(C)C)C(c1ccc(Cl)cc1)N(c1cc(Cl)ccc1C#N)C2=O (centres unmarked) [Example 100, 4-Chloro-2-[6-(4-chloro-phenyl)-2-(2-dimethylamino-4-methoxy-pyrimidin-5-yl)-1-isopropyl-4-oxo-4,6-dihydro-1H-pyrrolo[3,4-b]pyrrol-5-yl]-benzonitrile]"
7,7.81,"COc1ccccc1-c1cc2c(n1C(C)C)C(c1ccc(Cl)cc1C)N(C1CCOCC1)C2=O (centres unmarked) [Example 104, 6-(4-Chloro-2-methyl-phenyl)-1-isopropyl-2-(2-methoxy-phenyl)-5-(tetrahydro-pyran-4-yl)-5,6-dihydro-1H-pyrrolo[3,4-b]pyrrol-4-one]"
8,9.67,"COc1cccnc1-c1cc2c(n1C(C)C)C(c1ccc(Cl)cc1)N(c1cc(Cl)ccc1C)C2=O (centres unmarked) [Example 113, 5-(5-Chloro-2-methyl-phenyl)-6-(4-chloro-phenyl)-1-isopropyl-2-(3-methoxy-pyridin-2-yl)-5,6-dihydro-1H-pyrrolo[3,4-b]pyrrol-4-one]"
9,9.74,"COc1ccc(S(C)(=O)=O)cc1-c1cc2c(n1C(C)C)C(c1ccc(Cl)cc1)N(c1cc(Cl)ccc1C)C2=O (centres unmarked) [Example 114, 5-(5-Chloro-2-methyl-phenyl)-6-(4-chloro-phenyl)-1-isopropyl-2-(5-methanesulfonyl-2-methoxy-phenyl)-5,6-dihydro-1H-pyrrolo[3,4-b]pyrrol-4-one]"
10,9.31,"COc1ccccc1-c1c(F)c2c(n1C(C)C)C(c1ccc(Cl)cc1)N(c1cc(Cl)ccc1C)C2=O (centres unmarked) [Example 115, 5-(5-Chloro-2-methyl-phenyl)-6-(4-chloro-phenyl)-3-fluoro-1-isopropyl-2-(2-methoxy-phenyl)-5,6-dihydro-1H-pyrrolo[3,4-b]pyrrol-4-one]"
11,9.30,"COc1ccccc1-c1cc2c(n1C(C)C)C(C)(c1ccc(Cl)cc1)N(c1cc(Cl)ccc1C)C2=O (centres unmarked) [Example 116, 5-(5-Chloro-2-methyl-phenyl)-6-(4-chloro-phenyl)-1-isopropyl-2-(2-methoxy-phenyl)-6-methyl-5,6-dihydro-1H-pyrrolo[3,4-b]pyrrol-4-one]"
12,9.68,"COc1ncc(-c2cc3c(n2C(C)C)C(C)(c2ccc(Cl)cc2)N(c2cc(Cl)c(=O)n(C)c2)C3=O)c(OC)n1 (centres unmarked) [Example 117, 5-(5-Chloro-1-methyl-6-oxo-1,6-dihydro-pyridin-3-yl)-6-(4-chloro-phenyl)-2-(2,4-dimethoxy-pyrimidin-5-yl)-1-isopropyl-6-methyl-5,6-dihydro-1H-pyrrolo[3,4-b]pyrrol-4-one]"
